Assay results from patent US6376497B1, “Antifungal azole derivatives having a fluorinated vinyl group and process for preparing same” (Korea Research Institute of Chemical Technology, priority 1999, dated 2002).
In brackets after ≈: the same amount, converted by molar mass.

Legend:
Test in all cases: In vitro antifungal activity, microbroth dilution MIC
Type in all cases: cell-based
[1] = system: Aspergillus furnigatus B. 19119; conditions: 4 to 48 hours; for Minimal inhibitory concentration(MIC), A furnigatus B. 19119: RPMI-1640, 35° C., no growth observed; for Minimal inhibitory concentration (MIC): A furnigatus B. 19119, RPMI-1640, 35° C.
Protocol: (§1) In vitro antifungal activities of the inventive antifungal compounds were evaluated using the test strains shown in Table VIII by the following microbroth dilution method which is a modified version of the procedure recommended by National Committee for Clinical Laboratory Standards(see National Committee for Clinical Laboratory Standards, 1992, Reference methods for broth dilution antifungal susceptibility testing of yeasts, Proposed standard M27-P, National Committee for clinical laboratory standards, Villanova, Pa; and National Committee for Clinical Laboratory Standards, 1995, Reference methods for broth dilution antifungal susceptibility testing of yeasts. Tentative standard M27-T, National Committee for clinical laboratory standards, Villanova, Pa).
(§2) Sabourad Dextrose Agar(Difco) was used as a culture medium, and RPMI-1640 broth(Sigma. Co. w/L-glutamine, wo/NaHCO3)(0.165 M MOPS, pH 7.0), as a dilution medium.
(§3) Each of the test strains were subcultured in Sabourad Dextrose Agar medium twice and a stain sample was taken from prominent colonies and suspended in sterile physiological saline solution in a cap tube. The turbidity of the suspension was adjusted to that of the Mcfarland 0.5 standard sample(approximately 10^6 CFU/ml). Then the suspension was diluted 500-fold with sterile RPMI-1640 liquid medium to 2×10^3 CFU/ml.
(§4) Each of the test compounds(the compounds obtained in Examples 1 to 150 and comparative compounds, i.e., fluconazole(FCZ) and itraconazole (ICZ)), was dissolved in DMSO to give a stock solution having a concentration of 4000 μg/ml and the stock solution was successively diluted to obtain test solutions having test compound concentrations of 200, 100, 50, 25, 12.5, 6.25, 3.13, 1.56, 0.78, 0.39, 0.20 and 0.10 μg/ml, respectively.
(§5) 0.1 ml portion of the test solutions were added to the wells of a sterile 96 well plate. Then, 0.1 ml portion of each of the test strain solutions were added successively to the wells and the plate was incubated at 35° C. for 4 to 48 hours.
(§6) Minimal inhibitory concentration(MIC) of each compound was defined as the concentration of the test compound where no growth of the strain could be observed.

[2] = system: Aspergillus niger A. 16404; conditions: 4 to 48 hours; for Minimal inhibitory concentration(MIC), A. niger A. 16404: RPMI-1640, 35° C., no growth observed; for Minimal inhibitory concentration (MIC): A. niger A. 16404, RPMI-1640, 35° C.
Protocol: as §1, §2, §3, §4, §5, §6

[3] = system: Candida albicans A. 10231; conditions: 4 to 48 hours; for Minimal inhibitory concentration(MIC), C. albicans A. 10231: RPMI-1640, 35° C., no growth observed; for Minimal inhibitory concentration (MIC): C. albicans A. 10231, RPMI-1640, 35° C.
Protocol: as §1, §2, §3, §4, §5, §6

Candida albicans C1-2 = conditions: 4 to 48 hours; for Minimal inhibitory concentration(MIC), C. albicans C1-2: RPMI-1640, 35° C., no growth observed; for Minimal inhibitory concentration (MIC): C. albicans C1-2, RPMI-1640, 35° C.
Protocol: as §1, §2, §3, §4, §5, §6

[4] = system: Candida albicans IFO. 1385; conditions: 4 to 48 hours; for Minimal inhibitory concentration(MIC), C. albicans IFO. 1385: RPMI-1640, 35° C., no growth observed; for Minimal inhibitory concentration (MIC): C. albicans IFO. 1385, RPMI-1640, 35° C.
Protocol: as §1, §2, §3, §4, §5, §6

Candida krusei K. 11655 = conditions: 4 to 48 hours; for Minimal inhibitory concentration(MIC), C. krusei K. 11655: RPMI-1640, 35° C., no growth observed; for Minimal inhibitory concentration (MIC): C. krusei K. 11655, RPMI-1640, 35° C.
Protocol: as §1, §2, §3, §4, §5, §6

[5] = system: Candida parapsitosis A. 7330; conditions: 4 to 48 hours; for Minimal inhibitory concentration(MIC), C. parapsitosis A. 7330: RPMI-1640, 35° C., no growth observed; for Minimal inhibitory concentration (MIC): C. parapsitosis A. 7330, RPMI-1640, 35° C.
Protocol: as §1, §2, §3, §4, §5, §6

[6] = system: Candida pseudotropicalis K. 11658; conditions: 4 to 48 hours; for Minimal inhibitory concentration(MIC), C. pseudotropicalis K. 11658: RPMI-1640, 35° C., no growth observed; for Minimal inhibitory concentration (MIC): C. pseudotropicalis K. 11658, RPMI-1640, 35° C.
Protocol: as §1, §2, §3, §4, §5, §6

[7] = system: Candida tropicalis A. 13803; conditions: 4 to 48 hours; for Minimal inhibitory concentration(MIC), C. tropicalis A. 13803: RPMI-1640, 35° C., no growth observed; for Minimal inhibitory concentration (MIC): C. tropicalis A. 13803, RPMI-1640, 35° C.
Protocol: as §1, §2, §3, §4, §5, §6

[8] = system: Cryptococcus neoformans A. 34144; conditions: 4 to 48 hours; for Minimal inhibitory concentration(MIC), Cry. neoformans A. 34144: RPMI-1640, 35° C., no growth observed; for Minimal inhibitory concentration (MIC): Cry. neoformans A. 34144, RPMI-1640, 35° C.
Protocol: as §1, §2, §3, §4, §5, §6

[9] = system: Cryptococcus neoformans B. 42419; conditions: 4 to 48 hours; for Minimal inhibitory concentration(MIC), Cry. neoformans B. 42419: RPMI-1640, 35° C., no growth observed; for Minimal inhibitory concentration (MIC): Cry. neoformans B. 42419, RPMI-1640, 35° C.
Protocol: as §1, §2, §3, §4, §5, §6

[10] = system: Cryptococcus neoformans IFM. 40092; conditions: 4 to 48 hours; for Minimal inhibitory concentration(MIC), Cry. neoformans IFM. 40092: RPMI-1640, 35° C., no growth observed; for Minimal inhibitory concentration (MIC): Cry. neoformans IFM. 40092, RPMI-1640, 35° C.
Protocol: as §1, §2, §3, §4, §5, §6

[11] = system: Torulopsis glabrata B. 16205; conditions: 4 to 48 hours; for Minimal inhibitory concentration(MIC), T. glabrata B. 16205: RPMI-1640, 35° C., no growth observed; for Minimal inhibitory concentration (MIC): T. glabrata B. 16205, RPMI-1640, 35° C.
Protocol: as §1, §2, §3, §4, §5, §6

[12] = system: Trichophyton mentagrophytes A. 9129; conditions: 4 to 48 hours; for Minimal inhibitory concentration(MIC), T. mentagrophytes A. 9129: RPMI-1640, 35° C., no growth observed; for Minimal inhibitory concentration (MIC): T. mentagrophytes A. 9129, RPMI-1640, 35° C.
Protocol: as §1, §2, §3, §4, §5, §6

[13] = system: Trichophyton mentagrophytes B. 32663; conditions: 4 to 48 hours; for Minimal inhibitory concentration(MIC), T. mentagrophytes B. 32663: RPMI-1640, 35° C., no growth observed; for Minimal inhibitory concentration (MIC): T. mentagrophytes B. 32663, RPMI-1640, 35° C.
Protocol: as §1, §2, §3, §4, §5, §6

Minimal inhibitory concentration(MIC), A furnigatus B. 19119 [1] [µg/mL] | Minimal inhibitory concentration(MIC), A. niger A. 16404 [2] [µg/mL] | Minimal inhibitory concentration(MIC), C. albicans A. 10231 [3] [µg/mL] | Minimal inhibitory concentration(MIC), C. albicans C1-2 (Candida albicans C1-2) [µg/mL] | Minimal inhibitory concentration(MIC), C. albicans IFO. 1385 [4] [µg/mL] | Minimal inhibitory concentration(MIC), C. krusei K. 11655 (Candida krusei K. 11655) [µg/mL] | Minimal inhibitory concentration(MIC), C. parapsitosis A. 7330 [5] [µg/mL] | Minimal inhibitory concentration(MIC), C. pseudotropicalis K. 11658 [6] [µg/mL] | Minimal inhibitory concentration(MIC), C. tropicalis A. 13803 [7] [µg/mL] | Minimal inhibitory concentration(MIC), Cry. neoformans A. 34144 [8] [µg/mL] | Minimal inhibitory concentration(MIC), Cry. neoformans B. 42419 [9] [µg/mL] | Minimal inhibitory concentration(MIC), Cry. neoformans IFM. 40092 [10] [µg/mL] | Minimal inhibitory concentration(MIC), T. glabrata B. 16205 [11] [µg/mL] | Minimal inhibitory concentration(MIC), T. mentagrophytes A. 9129 [12] [µg/mL] | Minimal inhibitory concentration(MIC), T. mentagrophytes B. 32663 [13] [µg/mL] | Minimal inhibitory concentration (MIC) [1] [µg/mL] | Minimal inhibitory concentration (MIC) [2] [µg/mL] | Minimal inhibitory concentration (MIC) [3] [µg/mL] | Minimal inhibitory concentration (MIC) (Candida albicans C1-2) [µg/mL] | Minimal inhibitory concentration (MIC) [4] [µg/mL] | SMILES | also measured
>100 | >100 | >100 | 100 | 6.25 | >100 | >100 | >100 | >100 | 1.56 | 1.56 | 0.78 | >100 | >100 | >100 |  |  |  |  |  | COc1ccc(C(=C(F)OCC2COC(Cn3cncn3)(c3ccc(Cl)cc3Cl)O2)C(F)(F)F)cc1 (mixture of isomers) [Ex. 84] | 
>100 | >100 | 100 | >100 | 3.13 | >100 | >100 | >100 | >100 | 3.13 | 3.13 | 0.78 | 100 | 50.0 | 25.0 |  |  |  |  |  | FC(Oc1ccc(OCC2COC(Cn3ccnc3)(c3ccc(Cl)cc3Cl)O2)cc1)=C(c1cc(Cl)cc(Cl)c1)C(F)(F)F (mixture of isomers) [Ex. 104] | 
 |  |  |  |  |  |  |  |  |  |  |  |  |  |  | 12.5 (≈ 22.7 µM) | 25.0 (≈ 45.3 µM) | 25.0 (≈ 45.3 µM) | 25.0 (≈ 45.3 µM) | 1.56 (≈ 2.83 µM) | FC(OCC1COC(Cn2ccnc2)(c2ccc(Cl)cc2Cl)O1)=C(c1cccc(Cl)c1)C(F)(F)F (stereo not drawn) [Ex. 30] | Minimal inhibitory concentration (MIC) (Candida krusei K. 11655): >100 µg/mL; Minimal inhibitory concentration (MIC) [5]: >100 µg/mL; Minimal inhibitory concentration (MIC) [6]: >100 µg/mL; Minimal inhibitory concentration (MIC) [7]: >100 µg/mL; Minimal inhibitory concentration (MIC) [8]: 0.78 µg/mL (≈ 1.41 µM); Minimal inhibitory concentration (MIC) [9]: 0.78 µg/mL (≈ 1.41 µM); Minimal inhibitory concentration (MIC) [10]: 0.20 µg/mL (≈ 0.362 µM); Minimal inhibitory concentration (MIC) [11]: 12.5 µg/mL (≈ 22.7 µM); Minimal inhibitory concentration (MIC) [12]: 6.25 µg/mL (≈ 11.3 µM); Minimal inhibitory concentration (MIC) [13]: 1.56 µg/mL (≈ 2.83 µM)
 |  |  |  |  |  |  |  |  |  |  |  |  |  |  | 12.5 | 100 | 12.5 | 12.5 | 0.78 | COc1ccc(C(=C(F)OCC2COC(Cn3ccnc3)(c3ccc(F)cc3F)O2)C(F)(F)F)cc1 (mixture of isomers) [Ex. 61] | Minimal inhibitory concentration (MIC) (Candida krusei K. 11655): >100 µg/mL; Minimal inhibitory concentration (MIC) [5]: >100 µg/mL; Minimal inhibitory concentration (MIC) [6]: 100 µg/mL; Minimal inhibitory concentration (MIC) [7]: 100 µg/mL; Minimal inhibitory concentration (MIC) [8]: 1.56 µg/mL; Minimal inhibitory concentration (MIC) [9]: 1.56 µg/mL; Minimal inhibitory concentration (MIC) [10]: 0.20 µg/mL; Minimal inhibitory concentration (MIC) [11]: 6.25 µg/mL; Minimal inhibitory concentration (MIC) [12]: 6.25 µg/mL; Minimal inhibitory concentration (MIC) [13]: 3.13 µg/mL
